Experimental data published in patent EP0234500A1, “Antiasthma inhalation compositions” (RORER PHARMACEUTICAL CORPORATION, priority 1986, dated 1987).
Several values for one entry are separate records, joined by “and”; a condition that tells them apart may be missing. Identical values can stand only once. Counter-ions that a name gives are not always drawn.

How the values were obtained:
[1] = Solubility of the active compound in ethanol/propellant mixture; assay type: physicochemical
Description: Other aspects of the present invention include solubility of the active compound in the pharmaceutically acceptable solvent, ethyl alcohol, the maintainance in solution of the active compound upon the addition of the propellant(s) and the particle size distribution of the aerosol preparation. The compounds of the present invention are soluble in ethyl alcohol.

[2] = Particle size distribution and MMAD of aerosol formulations; assay type: physicochemical; set-up: MMAD**: unit: micrometers (µm); conditions: for MMAD**: Mass Median Aerodynamic Diameter; for Part. Size (mg collected) per 20 actuations 4 µ*: Particle Size Limit = 4 µ to 8 µ; for mg at 1-8 µ: per 20 actuations
Description: Other essential properties of aerosol formulations are the particle size distribution and the related mass median aerodynamic diameter of the particles. It is generally required that the effective range for inahalation products be approximately in the range of 1 to 8 micrometers (um). The particle size distribution helps, inter alia, to reduce loss on impaction on the tongue and oropharynx of the particles expelled from the pressurized container.

Male Hartley guinea pigs = assay: Antigen-induced bronchoconstriction in ovalbumin-immunized anesthetized guinea pigs, aerosol administration; assay type: in vivo; conditions: 1% aerosol formulation, 25 actuations, approximately 5 mg (or 15 mg/kg), 15 minutes before ovalbumin 0.3 mg/kg i.v. challenge, n=7
Method: Male Hartley guinea pigs (200-250 g) were immunized with ovalbumin, 2.7 mg/kg i.p., followed in 30 minutes by Salmonella typhosa lipopolysaccharide, 20 ug i.p. Thirteen to fifteen days after immunization, each guinea pig was anesthetized with sodium pentobarbital, 50 mg/kg i.p., and a jugular vein and the trachea were cannulated. The animal was mechanically ventilated (80 breaths/min. 2ml/breath). Needle electrodes were attached to the limbs for monitoring ECG and heart rate. Airway pressure was measured with a Validyne pressure transducer (+ 20 cm H20 range) connected to the tracheal cannula. Airway pressure for each breath was recorded on a polygraph, while mean values over 6-second periods were printed on a digital terminal. […] All bronchoconstrictor responses to the second dose of LTD4 and to antigen were quantified as the percent increase in airway pressure over the baseline value. The normalized response of each animal is expressed as the ratio of antigen-induced to LTD4-induced bronchoconstriction. Mean values and standard errors of these ratios in control and drug-treated groups were calculated and compared statistically by Student's t-test. The activity of each drug is expressed as the percent inhibition of the mean control response.

[3] = Compound of Example 1 1.0, ETOH 5.0, P 114 47, P 12 47, hydrochloride
[4] = Compound of Example 1 1.0, ETOH 10.0, P 114 25.0, P 12 75.0
[5] = Compound of Example 1 1.0, ETOH 10.0, P 114 35, P 12 53
[6] = Compound of Example 1 1.0, ETOH 10.0, P 114 44.5, P 12 44.5
[7] = Compound of Example 1 1.0, ETOH 10.0, P 114 44.5, P 12 44.5, hydrochloride
[8] = Compound of Example 1 2.0, ETOH 10.0, P 114 44.00, P 12 44.00
[9] = Compound of Example 1 2.5, ETOH 10.0, P 114 43.75, P 12 43.75, hydrochloride
[10] = Compound of Example 1 3.0, ETOH 10.0, P 114 43.5, P 12 43.5
[11] = Compound of Example 1 3.5, ETOH 10.0, P 114 43.25, P 12 43.25
[12] = Compound of Example 1 5.0, ETOH 30.0, P 114 32.5, P 12 32.5
[13] = Compound of Example 1 6.0, ETOH 20.0, P 114 29.6, P 12 44.4
[14] = Compound of Example 1 9.0, ETOH 30.0, P 114 17, P 12 44

**Q.** Which “Solubility at 24°C” value ([1]; Ethanol (W/W) 5%, Propellants 114/12 (50/50 Mixture) 93.2%) does the source give for `CCCCCC(O)c1cccc(OCc2ccc3ccccc3n2)c1` (stereo not drawn) [Compound of Example 1, 2-(3-(l-Hydroxyhexyl)phenoxymethyl)quinoline hydrochloride] here?
**A.** 1.8%

**Q.** What about the “Solubility at 24°C” value ([1]; Ethanol (W/W) 10%, Propellants 114/12 (50/50 Mixture) 86.0%) of the same compound?
**A.** 4.0%

**Q.** And the “Solubility at 24°C” value ([1]; Ethanol (W/W) 20%, Propellants 114/12 (50/50 Mixture) 74.0%)?
**A.** 6.0%

**Q.** And the “Solubility at 24°C” value ([1]; Ethanol (W/W) 30%, Propellants 114/12 (50/50 Mixture) 61.0%)?
**A.** 9.0%

**Q.** What about the “Part. Size (mg collected) per 20 actuations 1 µ” value [2, 3] of the same compound?
**A.** 0.448 mg and 0.607 mg and 0.667 mg

**Q.** What about the “Part. Size (mg collected) per 20 actuations 2 µ” value [2, 3] of the same compound?
**A.** 0.973 mg and 1.529 mg and 1.532 mg

**Q.** What about the “Pressure PSI” value [2, 3] of the same compound?
**A.** 58.7 PSI and 60.2 PSI

**Q.** And the “cum % 1-8 µ” value [2, 3]?
**A.** 57.74% and 60.73% and 66.20%

**Q.** And the “Part. Size (mg collected) per 20 actuations 1 µ” value [2, 4]?
**A.** 0.499 mg

**Q.** What about the “Part. Size (mg collected) per 20 actuations 2 µ” value [2, 4] of the same compound?
**A.** 1.167 mg

**Q.** And the “cum % 1-8 µ” value [2, 4]?
**A.** 45.36%

**Q.** What about the “Part. Size (mg collected) per 20 actuations 1 µ” value [2, 5] of the same compound?
**A.** 0.503 mg

**Q.** And the “Part. Size (mg collected) per 20 actuations 2 µ” value [2, 5]?
**A.** 1.201 mg

**Q.** And the “Pressure PSI” value [2, 5]?
**A.** 56 PSI

**Q.** And the “cum % 1-8 µ” value [2, 5]?
**A.** 55.41%

**Q.** And the “Pressure PSI” value [2, 6]?
**A.** 49.3 PSI

**Q.** What about the “Part. Size (mg collected) per 20 actuations 1 µ” value [2, 7] of the same compound?
**A.** 0.498 mg and 0.479 mg

**Q.** And the “Part. Size (mg collected) per 20 actuations 2 µ” value [2, 7]?
**A.** 1.243 mg and 0.868 mg

**Q.** What about the “cum % 1-8 µ” value [2, 7] of the same compound?
**A.** 53.70% and 57.26%

**Q.** What about the “Part. Size (mg collected) per 20 actuations 1 µ” value [2, 8] of the same compound?
**A.** 0.661 mg

**Q.** What about the “Part. Size (mg collected) per 20 actuations 2 µ” value [2, 8] of the same compound?
**A.** 1.373 mg

**Q.** What about the “cum % 1-8 µ” value [2, 8] of the same compound?
**A.** 46.71%

**Q.** And the “Part. Size (mg collected) per 20 actuations 1 µ” value [2, 9]?
**A.** 0.514 mg and 0.528 mg and 0.638 mg

**Q.** What about the “Part. Size (mg collected) per 20 actuations 2 µ” value [2, 9] of the same compound?
**A.** 1.380 mg and 1.435 mg and 1.106 mg

**Q.** What about the “cum % 1-8 µ” value [2, 9] of the same compound?
**A.** 44.86% and 44.36% and 42.87%

**Q.** What about the “Part. Size (mg collected) per 20 actuations 1 µ” value [2, 10] of the same compound?
**A.** 0.538 mg

**Q.** And the “Part. Size (mg collected) per 20 actuations 2 µ” value [2, 10]?
**A.** 1.478 mg

**Q.** And the “cum % 1-8 µ” value [2, 10]?
**A.** 40.15%

**Q.** What about the “Part. Size (mg collected) per 20 actuations 1 µ” value [2, 11] of the same compound?
**A.** 0.583 mg

**Q.** What about the “Part. Size (mg collected) per 20 actuations 2 µ” value [2, 11] of the same compound?
**A.** 1.236 mg

**Q.** And the “cum % 1-8 µ” value [2, 11]?
**A.** 35.00%

**Q.** And the “Part. Size (mg collected) per 20 actuations 1 µ” value [2, 12]?
**A.** 0.336 mg

**Q.** And the “Part. Size (mg collected) per 20 actuations 2 µ” value [2, 12]?
**A.** 0.852 mg

**Q.** And the “Pressure PSI” value [2, 12]?
**A.** 52 PSI

**Q.** And the “cum % 1-8 µ” value [2, 12]?
**A.** 32.09%

**Q.** What about the “Part. Size (mg collected) per 20 actuations 1 µ” value [2, 13] of the same compound?
**A.** 0.447 mg

**Q.** And the “Part. Size (mg collected) per 20 actuations 2 µ” value [2, 13]?
**A.** 0.901 mg

**Q.** And the “Pressure PSI” value [2, 13]?
**A.** 52.0 PSI

**Q.** What about the “cum % 1-8 µ” value [2, 13] of the same compound?
**A.** 28.77%

**Q.** What about the “Part. Size (mg collected) per 20 actuations 1 µ” value [2, 14] of the same compound?
**A.** 0.394 mg

**Q.** What about the “Part. Size (mg collected) per 20 actuations 2 µ” value [2, 14] of the same compound?
**A.** 0.818 mg

**Q.** And the “Pressure PSI” value [2, 14]?
**A.** 53.7 PSI

**Q.** What about the “cum % 1-8 µ” value [2, 14] of the same compound?
**A.** 28.79%

**Q.** What about the “MMAD**” value [2, 3] of the same compound?
**A.** 3.0 and 2.8

**Q.** And the “MMAD**” value [2, 4]?
**A.** 4.0

**Q.** And the “MMAD**” value [2, 5]?
**A.** 3.5

**Q.** What about the “MMAD**” value [2, 6] of the same compound?
**A.** 3.0

**Q.** And the “MMAD**” value [2, 8]?
**A.** 3.8

**Q.** And the “MMAD**” value [2, 9]?
**A.** 3.8 and 4.0

**Q.** And the “MMAD**” value [2, 10]?
**A.** 4.0

**Q.** And the “MMAD**” value [2, 11]?
**A.** 4.5

**Q.** And the “MMAD**” value [2, 12]?
**A.** 6.0

**Q.** And the “MMAD**” value [2, 13]?
**A.** 5.75

**Q.** What about the “MMAD**” value [2, 14] of the same compound?
**A.** 6.0

**Q.** And the “Part. Size (mg collected) per 20 actuations 4 µ*” value [2, 3]?
**A.** 2.091 mg and 2.522 mg and 2.481 mg

**Q.** And the “Part. Size (mg collected) per 20 actuations 4 µ*” value [2, 4]?
**A.** 1.611 mg

**Q.** And the “Part. Size (mg collected) per 20 actuations 4 µ*” value [2, 5]?
**A.** 2.283 mg

**Q.** And the “Part. Size (mg collected) per 20 actuations 4 µ*” value [2, 7]?
**A.** 1.871 mg and 1.715 mg

**Q.** What about the “Part. Size (mg collected) per 20 actuations 4 µ*” value [2, 8] of the same compound?
**A.** 2.772 mg

**Q.** And the “Part. Size (mg collected) per 20 actuations 4 µ*” value [2, 9]?
**A.** 3.121 mg and 3.103 mg and 2.744 mg

**Q.** And the “Part. Size (mg collected) per 20 actuations 4 µ*” value [2, 10]?
**A.** 2.657 mg

**Q.** What about the “Part. Size (mg collected) per 20 actuations 4 µ*” value [2, 11] of the same compound?
**A.** 3.546 mg

**Q.** And the “Part. Size (mg collected) per 20 actuations 4 µ*” value [2, 12]?
**A.** 2.084 mg

**Q.** And the “Part. Size (mg collected) per 20 actuations 4 µ*” value [2, 13]?
**A.** 2.879 mg

**Q.** What about the “Part. Size (mg collected) per 20 actuations 4 µ*” value [2, 14] of the same compound?
**A.** 2.381 mg

**Q.** What about the “mg at 1-8 µ” value [2, 3] of the same compound?
**A.** 3.512 mg and 4.658 mg and 4.680 mg

**Q.** And the “mg at 1-8 µ” value [2, 4]?
**A.** 3.277 mg

**Q.** And the “mg at 1-8 µ” value [2, 5]?
**A.** 3.987 mg

**Q.** What about the “mg at 1-8 µ” value [2, 7] of the same compound?
**A.** 3.612 mg and 3.062 mg

**Q.** And the “mg at 1-8 µ” value [2, 8]?
**A.** 4.806 mg

**Q.** What about the “mg at 1-8 µ” value [2, 9] of the same compound?
**A.** 5.015 mg and 5.066 mg and 4.488 mg

**Q.** What about the “mg at 1-8 µ” value [2, 10] of the same compound?
**A.** 4.673 mg

**Q.** And the “mg at 1-8 µ” value [2, 11]?
**A.** 5.365 mg

**Q.** And the “mg at 1-8 µ” value [2, 12]?
**A.** 3.272 mg

**Q.** And the “mg at 1-8 µ” value [2, 13]?
**A.** 4.227 mg

**Q.** And the “mg at 1-8 µ” value [2, 14]?
**A.** 3.593 mg

**Q.** And the “percent inhibition of the mean control response” value (Male Hartley guinea pigs)?
**A.** 53%

**Q.** And the “normalized postchallenge increase in PAW (ratio of antigen-induced to LTD4-induced bronchoconstriction), mean response” value (Male Hartley guinea pigs; mean and standard error)?
**A.** 0.60 ± 0.16
